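Compound exposure: 48 hours, 5 concentrations, 96-well plates. GI50 is the concentration that inhibits growth by half.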 The source made the active and inactive calls. No stated cut-off is given here; in the data, active = GI50 up to about 1.1 µM and inactive = higher.
Tests used:
Experiment in all cases: inhibition of tumour cell growth, NCI panel, 48 h
SK-OV-3 = tested on: SK-OV-3
SNB-19 = tested on: SNB-19
MOLT-4 = tested on: MOLT-4
IGROV-1 = tested on: IGROV-1
DLD-1 = tested on: DLD-1
HOP-62 = tested on: HOP-62
SNB-78 = tested on: SNB-78
M19-MEL = tested on: M19-MEL
RXF 631 = tested on: RXF 631
OVCAR-5 = tested on: OVCAR-5
HOP-92 = tested on: HOP-92
NCI-H226 = tested on: NCI-H226
SK-MEL-28 = tested on: SK-MEL-28
SNB-75 = tested on: SNB-75
UACC-62 = tested on: UACC-62
RPMI-8226 = tested on: RPMI-8226
M14 = tested on: M14
HCC 2998 = tested on: HCC 2998
NCI-H522 = tested on: NCI-H522
HL-60 = tested on: HL-60
RXF 393 = tested on: RXF 393
SF-539 = tested on: SF-539
SN12C = tested on: SN12C
SK-MEL-2 = tested on: SK-MEL-2
NCI-H23 = tested on: NCI-H23
KM-20L2 = tested on: KM-20L2
KM12 = tested on: KM12
ACHN = tested on: ACHN
Malme-3M = tested on: Malme-3M
DMS-114 = tested on: DMS-114
CCRF-CEM = tested on: CCRF-CEM
UACC-257 = tested on: UACC-257
UO-31 = tested on: UO-31
COLO 205 = tested on: COLO 205
TK-10 = tested on: TK-10
SF-295 = tested on: SF-295
HCT-116 = tested on: HCT-116
786-0 = tested on: 786-0
LOX IMVI = tested on: LOX IMVI
U-251 = tested on: U-251
SW-620 = tested on: SW-620
OVCAR-8 = tested on: OVCAR-8
K562 = tested on: K562
OVCAR-4 = tested on: OVCAR-4
SF-268 = tested on: SF-268
CAKI-1 = tested on: CAKI-1
A498 = tested on: A498
LXFL 529 = tested on: LXFL 529
EKVX = tested on: EKVX
HOP-18 = tested on: HOP-18
NCI-H460 = tested on: NCI-H460
A549 = tested on: A549
SK-MEL-5 = tested on: SK-MEL-5
XF498 = tested on: XF498
OVCAR-3 = tested on: OVCAR-3

Measured: GI50

Cc1ccc(S(=O)(=O)NC(=O)Nc2nc(Cl)cc(Cl)n2)cc1
inactive: SK-OV-3 > 100 µM | SNB-19 > 100 µM | MOLT-4 57.7 µM | IGROV-1 > 100 µM | DLD-1 > 100 µM | HOP-62 > 100 µM | SNB-78 > 100 µM | M19-MEL > 100 µM | RXF 631 > 100 µM | OVCAR-5 > 100 µM | HOP-92 99.3 µM | NCI-H226 > 100 µM | SK-MEL-28 > 100 µM | SNB-75 > 100 µM | UACC-62 > 100 µM | RPMI-8226 > 100 µM | M14 > 100 µM | HCC 2998 28.3 µM | NCI-H522 5.89 µM | HL-60 > 100 µM | RXF 393 > 100 µM | SF-539 > 100 µM | SN12C > 100 µM | SK-MEL-2 > 100 µM | NCI-H23 > 100 µM | KM-20L2 > 100 µM | KM12 > 100 µM | ACHN > 100 µM | Malme-3M > 100 µM | DMS-114 96.4 µM | CCRF-CEM > 100 µM | UACC-257 19.2 µM | UO-31 > 100 µM | COLO 205 > 100 µM | TK-10 > 100 µM | SF-295 > 100 µM | HCT-116 > 100 µM | 786-0 > 100 µM | LOX IMVI > 100 µM | U-251 > 100 µM | SW-620 > 100 µM | OVCAR-8 > 100 µM | K562 62.2 µM | OVCAR-4 > 100 µM | SF-268 > 100 µM | CAKI-1 > 100 µM | A498 > 100 µM | LXFL 529 > 100 µM | EKVX > 100 µM | HOP-18 > 100 µM | NCI-H460 > 100 µM | A549 > 100 µM | SK-MEL-5 > 100 µM | XF498 > 100 µM | OVCAR-3 > 100 µM
